pIC50: −log10 of the molar value.

In one assay the target is human P2X3 receptor (Homo sapiens (Human), UniProt P56373). The assay can be described thus: Inhibitory activity on human P2X3 receptor (calcium 6 dye FLIPR assay, agonist α,β-MeATP). Type of assay: cell-based. As to conditions: HEK293-P2X3 stably expressing cell line, FLIPR Tetra. How it is done:
(§1) Biological Assay: Determination of the Inhibitory Activity of the Compounds on Human P2X3 and P2X2/3 Receptors
(§2) Cells were seeded into a poly-D-lysine-coated 384-well cell culture plate (Corning) at a density of 11,000 cells/well/25 μL of cell inoculation medium, and were cultured in a cell incubator overnight. On the day of the test, the calcium 6 dye was diluted to a 2× concentration with a assay buffer, 25 μL of the 2× calcium 6 dye was added to the 384-well cell culture plate, which was incubated at 37° C. for 2 hours, and then placed at room temperature for further use. The test compound and the agonist, α,β-MeATP were diluted to a 7× concentration with the assay buffer, 10 μL of the 7× test compound was added to the 384-well cell culture plate, which was incubated at room temperature for 15 minutes, and 10 μL of the 7× α,β-MeATP was transferred into the 384-well cell culture plate. The data were measured and analyzed using FLIPR Tetra, and the half inhibitory concentration (IC50) of the test compound on P2X3 and P2X2/3 receptors was calculated with the GraphPad Prism four-parameter equation.
(§3) Cell lines: human embryonic kidney cells HEK293-P2X3 and HEK293-P2X2/3 stably expressing cell lines;
(§4) Complete cell culture medium: DMEM High Glucose (Life Technology), which contained 10% fetal bovine serum, 4 mM GlutaMAX, 1% penicillin-streptomycin, and 350 μg/mL G418;
(§5) Cell inoculation medium: DMEM High Glucose (Life Technology), which contained 2% fetal bovine serum, and 4 mM GlutaMAX;
(§6) Cell culture conditions: 37° C., 5% CO2;
(§7) Assay buffer: HBSS (containing calcium and magnesium ions), which contained 20 mM HEPES;
(§8) Detection equipment: FLIPR Tetra (Molecular Devices);

A further assay addresses human P2X2/3 receptor (Homo sapiens (Human), UniProt P56373+Q9UBL9). The assay can be described thus: Inhibitory activity on human P2X2/3 receptor (calcium 6 dye FLIPR assay, agonist α,β-MeATP). In kind it is cell-based. As to conditions: HEK293-P2X2/3 stably expressing cell line, FLIPR Tetra. On the procedure: as §1, §2, §3, §4, §5, §6, §7, §8

human P2X2/3 receptor, sequence (Q9UBL9 whole entry): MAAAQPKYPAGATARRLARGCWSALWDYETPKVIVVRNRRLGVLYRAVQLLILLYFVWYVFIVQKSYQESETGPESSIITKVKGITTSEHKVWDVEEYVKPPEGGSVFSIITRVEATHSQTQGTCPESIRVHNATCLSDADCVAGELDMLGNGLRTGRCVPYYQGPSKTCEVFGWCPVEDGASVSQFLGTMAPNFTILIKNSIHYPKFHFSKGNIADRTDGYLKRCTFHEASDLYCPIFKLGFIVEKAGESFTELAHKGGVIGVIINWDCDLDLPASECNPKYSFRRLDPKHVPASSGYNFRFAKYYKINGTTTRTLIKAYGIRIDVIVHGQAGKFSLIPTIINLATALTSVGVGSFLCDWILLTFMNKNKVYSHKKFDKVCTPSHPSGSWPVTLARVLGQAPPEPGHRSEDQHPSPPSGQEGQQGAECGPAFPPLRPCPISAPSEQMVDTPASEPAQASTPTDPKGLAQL
human P2X2/3 receptor, sequence (P56373 whole entry): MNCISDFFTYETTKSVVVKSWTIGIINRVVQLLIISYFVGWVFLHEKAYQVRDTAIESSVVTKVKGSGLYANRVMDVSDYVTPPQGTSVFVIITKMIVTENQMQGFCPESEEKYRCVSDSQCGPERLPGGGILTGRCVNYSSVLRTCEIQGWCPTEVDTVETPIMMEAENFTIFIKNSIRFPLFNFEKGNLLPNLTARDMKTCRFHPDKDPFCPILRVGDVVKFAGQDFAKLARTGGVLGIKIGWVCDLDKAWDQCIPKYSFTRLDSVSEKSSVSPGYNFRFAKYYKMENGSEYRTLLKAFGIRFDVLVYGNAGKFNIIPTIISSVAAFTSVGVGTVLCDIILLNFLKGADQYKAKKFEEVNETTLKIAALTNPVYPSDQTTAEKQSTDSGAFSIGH
human P2X3 receptor, sequence (P56373 whole entry): as above

Turning to `CC(C)c1cnc(C#Cc2ccccc2)cc1Oc1cnc(N)nc1N` [Compound C135, 5-((5-isopropyl-2-(phenyl-ethynyl)pyridin-4-yl)oxy) pyrimidine-2,4-diamine], the pIC50 on human P2X3 receptor is 6.52; on human P2X2/3 receptor, 6.31. In the same order, the values of `CCN(C)CCNc1nc(N)ncc1Oc1cc(Br)ncc1C(C)C` [Compound C154, 5-((2-bromo-5-isopropylpyridin-4-yl)oxy)-N^4-(2-(ethyl(methyl)amino)ethyl)pyrimidine-2,4-diamine] are 7.14 and 7.34. In the same order, the values of `CC(C)CNc1nc(N)ncc1Oc1cc(Br)ncc1C(C)C` [Compound C181, 5-((2-bromo-5-isopropylpyridin-4-yl)oxy)-N^4-isobutyl-pyrimidine-2,4-diamine] are 7.08 and 7.11. On to `C=C(C)c1cnc(SC)cc1Oc1cnc(N)nc1N` [Compound C208, 5-((2-(methylthio)-5-(prop-1-en-2-yl)pyridin-4-yl)oxy)pyrimidine-2,4-diamine], for which the pIC50 is 7.12 on human P2X3 receptor and 6.98 on human P2X2/3 receptor. On the same counts, the results for `CC(C)Nc1nc(N)ncc1Oc1cc(Br)ncc1C(C)C` [Compound C174, 5-((2-bromo-5-isopropylpyridin-4-yl)oxy)-N^4-isopropyl-pyrimidine-2,4-diamine] are 7.00 and 6.84.

For `C#Cc1cc(Oc2cnc(N)nc2NC(C)C)c(C(C)C)cn1` [Compound C212, 5-((2-ethynyl-5-isopropylpyridin-4-yl)oxy)-N^4-isopropylpyrimidine-2,4-diamine], the results for the pIC50 at human P2X3 receptor and at human P2X2/3 receptor were 7.09 and 6.91, respectively. On the same counts, the results for `CSc1cc(Oc2cnc(N)nc2NCCN(C)C)c(C(C)C)cn1` [Compound C72, N^4-(2-(dimethylamino)ethyl)-5-((5-isopropyl-2-(methylthio)pyridin-4-yl)oxy)pyrimidine-2,4-diamine] are 6.90 and 7.05. As for `CC(C)c1cnc(Cl)cc1Sc1cnc(N)nc1N` [C84], the figures for the negative-log IC50 (pIC50) at human P2X3 receptor and on human P2X2/3 receptor were 6.27 and 6.13, respectively. In the same order, the values of `CC(C)Nc1ncc(Oc2cc(Br)ncc2C(C)C)c(N)n1` [Compound C239, 5-((2-bromo-5-isopropylpyridin-4-yl)oxy)-N^2-isopropyl-pyrimidine-2,4-diamine] are 6.97 and 6.88. Turning to `Cc1cc(Sc2cnc(N)nc2N)c(C(C)C)cn1` [Compound C92, 5-((5-isopropyl-2-methylpyridin-4-yl)thio) pyrimidine-2,4-diamine], the pIC50 is 6.96 on human P2X3 receptor and 6.65 on human P2X2/3 receptor. As for `CC(C)c1cnc(Br)cc1Oc1cnc(N)nc1NNC(=O)OC(C)(C)C` [Compound C222, tert-butyl 2-(2-amino-5-((2-bromo-5-isopropylpyridin-4-yl)oxy)pyrimidin-4-yl)hydrazine-1-carboxylate], the figures for the pIC50 on human P2X3 receptor and on human P2X2/3 receptor were 7.32 and 7.40, respectively.

As to `CC(C)c1cnc(C2CC2)cc1Oc1cnc(N)nc1N` [Compound C52, 5-((2-cyclopropyl-5-isopropylpyridin-4-yl)oxy)pyrimidine-2,4-diamine], the results for the pIC50 at human P2X3 receptor and on human P2X2/3 receptor were 6.83 and 6.23, respectively.

Regarding `CC(C)c1cnc(Br)cc1Oc1cnc(N)nc1NCCOCCO` [Compound C201, 2-(2-((2-amino-5-((2-bromo-5-isopropylpyridin-4-yl)oxy)pyrimidin-4-yl)amino)ethoxy) ethanol], the pIC50 on human P2X3 receptor was 6.50; on human P2X2/3 receptor, 6.30.

In the case of `CCSc1cc(Sc2cnc(N)nc2N)c(C(C)C)cn1` [Compound C125, 5-((2-(ethylthio)-5-isopropyl-pyridin-4-yl)thio) pyrimidine-2,4-diamine], the pIC50 at human P2X3 receptor is 6.14.

For `CC[C@@H](CO)Nc1nc(N)ncc1Oc1cc(Br)ncc1C(C)C` [Compound C209, (S)-2-((2-amino-5-((2-bromo-5-isopropylpyridin-4-yl)oxy)pyrimidin-4-yl)amino)but-1-ol], the pIC50 on human P2X3 receptor is 6.84; on human P2X2/3 receptor, 6.68. On to `C=C(OCC)c1cc(Oc2cnc(N)nc2N)c(C(C)C)cn1` [Compound C45, 5-((2-(1-ethoxyvinyl)-5-isopropylpyridin-4-yl)oxy)pyrimidine-2,4-diamine], for which the negative logarithm of the IC50 (pIC50) on human P2X3 receptor is 6.36. For `CC(C)c1cnc(C#Cc2cnc3cccnn23)cc1Oc1cnc(N)nc1N` [Compound C195, 5-((2-(imidazo[1,2-b]pyridazin-3-ylethynyl)-5-isopropylpyridin-4-yl)oxy)pyrimidine-2,4-diamine], at human P2X3 receptor, the pIC50 is 6.50. On the same count and under the same terms, the result for `CC(C)c1cnc(Br)cc1Oc1cnc(N)nc1N[C@H](C)C1CC1` [Compound C182, (R)-5-((2-bromo-5-isopropylpyridin-4-yl)oxy)-N^4-(1-cyclopro-pylethyl) pyrimidine-2,4-diamine] reads 6.17.

As for `COc1cc(Oc2cnc(N)nc2N)c(Br)cn1` [Compound C124, 5-((5-bromo-2-methoxypyridin-4-yl)oxy)pyrimidine-2,4-diamine], the pIC50 at human P2X3 receptor is 5.91.

On to `CC(C)c1cc(Oc2cnc(N)nc2N)c(C(C)C)cn1` [Compound C16, 5-((2,5-diisopropylpyridin-4-yl)oxy)pyrimidine-2,4-diamine], for which, at human P2X3 receptor, the pIC50 was 6.10.

Regarding `CC(C)c1cnc(C(F)(F)F)cc1Oc1cnc(N)nc1N` [Compound C67, 5-((5-isopropyl-2-(trifluoromethyl)pyridin-4-yl)oxy)pyrimidine-2,4-diamine], the pIC50 at human P2X3 receptor is 6.31. Same read-out and setting: the result for `CC(C)c1cnc(-c2cn[nH]c2)cc1Oc1cnc(N)nc1N` [Compound C35, 5-((5-isopropyl-2-(1H-pyrazol-4-yl)pyridin-4-yl)oxy)pyrimidine-2,4-diamine] reads 5.93; that for `CC(C)c1cnc(/C=C/c2ccccc2)cc1Oc1cnc(N)nc1N` [Compound C138, (E)-5-((5-isopropyl-2-styrylpyridin-4-yl)oxy) pyrimidine-2,4-diamine], 6.20.

On to `CC(C)Nc1cc(Oc2cnc(N)nc2N)c(C(C)C)cn1` [Compound C120, 5-((5-isopropyl-2-(isopropylamino)pyridin-4-yl)oxy)pyrimidine-2,4-diamine], for which the pIC50 at human P2X3 receptor was 6.31.

Take `CC(C)c1c[n+]([O-])c(Br)cc1Oc1cnc(N)nc1N` [C1]: the pIC50 on human P2X3 receptor is 6.13. The same measure, in the same setting: the result for `CC(C)c1cnc(NCCO)cc1Oc1cnc(NCCO)nc1N` [Compound C242, 2-((4-((4-amino-2-((2-hydroxyethyl)amino)pyrimidin-5-yl)oxy)-5-isopropyl-pyridin-2-yl)amino)ethanol] reads 6.13. For `CC(C)c1cnc(S(N)(=O)=O)cc1Oc1cnc(N)nc1N` [Compound C6, 4-((2,4-diaminopyrimidin-5-yl)oxy)-5-isopropylpyridine-2-sulfonamide], at human P2X3 receptor, the pIC50 was 6.46.

For `CC(C)c1cnc(-n2cccc2)cc1Oc1cnc(N)nc1N` [Compound C38, 5-((5-isopropyl-2-(1H-pyrrol-1-yl)pyridin-4-yl)oxy)pyrimidine-2,4-diamine], the pIC50 on human P2X3 receptor is 6.10. On the same count and under the same terms, with `CC(C)c1cnc(C(N)=O)cc1Oc1cnc(N)nc1N` [Compound C129, 4-((2,4-diamino-pyrimidin-5-yl)oxy)-5-isopropyl-picolinamide] the figure was 6.42; with `CNc1ncc(Oc2cc(Br)ncc2C(C)C)c(NC)n1` [C227], 6.02; with `CC(C)c1cnc(CC(=O)c2ccc(N(C)C)cc2)cc1Oc1cnc(N)nc1N` [Compound C155], 6.03.

(Values after patent publication US11919918B2, “P2X3 andor P2X2/3 receptor antagonist, pharmaceutical composition comprising same, and use thereof” (BEIJING TIDE PHARMACEUTICAL CO., LTD., priority 2017, dated 2024).)
